Reference: PubChem BioAssay AID686957 (The Scripps Research Institute Molecular Screening Center, 2013)
Calls of active or inactive are those of the source. The rule behind the calls is not given here.

target: T-cell receptor (TCR)-CD3 interaction, human (TCR alpha chain TRAV4); test: IC50 for blocking TCR-CD3 binding – biochemical, fluorescence, TAMRA-labeled TCR probe, dose response (AID 686957)

IC50, inactive:
O=C1COc2ccc(C(=O)COC(=O)/C=C/c3ccc(Br)o3)cc2N1 > 94.1 µM, Cc1cc(C(=O)N/N=C/c2cc(Cl)cc([N+](=O)[O-])c2O)n[nH]1 > 94.1 µM, O=C(N/N=C/c1cc([N+](=O)[O-])ccc1O)/C(=C\c1cccs1)NC(=O)c1ccccc1 > 94.1 µM, CCC(=O)Nc1ccc2nc3c(=O)[nH]c(=S)[nH]c3nc2c1 > 94.1 µM, COc1cc(/C=N/NC(=O)c2cc(O)cc(O)c2)ccc1OC(=O)c1ccccc1 > 94.1 µM, O=C(N/N=C/c1cn(Cc2cccc(F)c2)c2ccccc12)c1cc(O)cc(O)c1 > 94.1 µM, COC(=O)Nc1ccc(S(=O)(=O)NNC(=O)c2c(O)c3ccccc3n(C)c2=O)cc1 > 94.1 µM, O=C1C(=Cc2cn(-c3ccccc3)nc2-c2ccc(OCc3ccccc3)cc2)SC(=S)N1CCS(=O)(=O)O > 94.2 µM, CC(=O)NNC(=S)NC(=O)c1ccc(C)cc1 > 94 µM, COCCn1c(=NC(=O)c2cc(-c3cccs3)nc3ccccc23)sc2cc(S(N)(=O)=O)ccc21 > 94.1 µM, O=C(N/N=C/c1cc(Cl)cc([N+](=O)[O-])c1O)c1ccc2c(c1)OCO2 > 94.1 µM, O=c1oc2ccccc2c2oc3cc(O)c(O)cc3c12 > 94.2 µM, O=C(NNC(=O)c1ccccc1F)c1cccc(-n2cccc2)c1 > 94 µM, O=C(NC(=S)NNC(=O)c1cccs1)c1ccccc1 > 94.1 µM, O=C(Cc1ccccc1)N/N=C/c1cc(Br)cc(Br)c1O > 94.1 µM, Cn1c(=O)c(C(=O)NNC(=O)c2ccccc2F)c(O)c2ccccc21 > 94.1 µM, O=C(N/N=C/c1ccc(F)cc1)c1cc(-c2ccco2)nc2ccccc12 > 94.1 µM, COc1ccccc1N(C)S(=O)(=O)c1ccc(C(=O)NNC(=O)c2ccccc2O)cc1 > 94.1 µM, O=C(O)CC(CCc1ccccc1)OC1OC(CO)C(O)C(O)C1O (stereo not drawn) > 94.1 µM, O=[N+]([O-])c1ccc(O)c(/C=N/NC(=S)Nc2ccc(Cl)cc2Cl)c1 > 94.1 µM, CN(C)S(=O)(=O)c1cccc(NC(=O)COC(=O)c2cc(-c3cccc(Br)c3)nc3ccccc23)c1, COc1ccc(/C=C2\SC(=O)N(CC(=O)NNC(=O)c3ccccc3O)C2=O)cc1OC > 94.1 µM, O=C(O)c1ccccc1/C=N/NC(=O)c1cc(-c2ccco2)nc2ccccc12 > 94.1 µM, COc1ccc(NC(=O)NNC(=O)c2ccc3ccccc3c2O)cc1OC > 94.1 µM, CN(CCC#N)C(=O)COC(=O)c1c2c(nc3ccccc13)/C(=C\c1ccco1)CC2 > 94.1 µM, C/C(=N\NC(=O)c1ccc(-c2ccccc2)cc1)C1C(=O)c2ccccc2C1=O > 94.1 µM, Cc1cc(/C=N/n2c(COc3ccccc3C)nc3ccccc3c2=O)c(O)c([N+](=O)[O-])c1 > 94.1 µM, O=C(N/N=C/c1ccoc1)c1cc(O)cc(O)c1 > 94 µM, Cc1ccccc1NC(=O)NNC(=O)c1ccc2ccccc2c1O > 94.2 µM, Cc1ccc(C(=O)NNC(=O)c2cc3ccccc3cc2O)cc1 > 94.1 µM, Cn1c(SCC(=O)NNC(=O)c2ccccc2O)nnc1-c1ccccc1 > 94.2 µM, O=C(CSc1nnc(-c2ccccc2)n1Cc1ccccc1)NNC(=O)c1ccccc1O > 94.1 µM

IC50, active:
Cc1c(CC(=O)N2CCN(C(=O)C3COc4ccccc4O3)CC2)c(=O)oc2c(O)c(O)ccc12 (stereo not drawn) 6.03 µM
